Reference: patent publication US11096910B2, “Metabolically robust analogs of CYP-eicosanoids for the treatment of cardiac disease” (OMEICOS THERAPEUTICS GMBH, priority 2015, dated 2021)

Key:
[1] = molecular target: T1, human soluble expoxide hydrolase (sEH) (Homo sapiens, UniProt P34913); assay: In vitro inhibition of recombinant human soluble epoxide hydrolase; assay type: biochemical; settings: 10 μM compound, 50 μM 14,15-EET substrate, vs vehicle control
T1 construct: purchased Cayman Chemicals
T1 sequence (P34913 1-555): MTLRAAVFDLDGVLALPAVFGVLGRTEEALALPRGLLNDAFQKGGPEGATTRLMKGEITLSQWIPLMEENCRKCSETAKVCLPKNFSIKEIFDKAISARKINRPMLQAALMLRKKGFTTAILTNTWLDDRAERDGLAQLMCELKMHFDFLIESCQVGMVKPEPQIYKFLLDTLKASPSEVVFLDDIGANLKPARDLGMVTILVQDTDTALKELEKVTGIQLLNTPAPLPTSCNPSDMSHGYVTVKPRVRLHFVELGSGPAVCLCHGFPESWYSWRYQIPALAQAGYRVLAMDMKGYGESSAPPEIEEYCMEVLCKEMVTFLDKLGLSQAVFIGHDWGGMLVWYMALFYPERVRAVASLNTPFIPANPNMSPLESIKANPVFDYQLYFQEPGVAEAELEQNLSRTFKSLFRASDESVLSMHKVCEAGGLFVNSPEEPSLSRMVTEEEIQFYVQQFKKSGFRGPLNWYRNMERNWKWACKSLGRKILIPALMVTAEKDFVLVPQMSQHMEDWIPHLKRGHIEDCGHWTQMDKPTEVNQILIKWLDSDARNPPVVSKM
Method: A selection of compounds was tested for the ability to inhibit human soluble expoxide hydrolase (sEH). […] Briefly, the assay was performed at 37° C. for 20 min in a final volume of 100 μL potassium phosphate buffer (0.1 M, pH 7.2) containing 50 μM 14,15-EET as substrate. The reactions were started by adding enzyme (107.5 ng per reaction, 12.06 U/ml activity, Cayman Chemicals) and terminated with 300 μl ethyl acetate. […] Metabolically robust analogs shown in FIG. 5 were tested at final concentration of 10 μM for potency of sEH-inhibition compared to vehicle control (1% DMSO), n=2-4.

[2] = test system: spontaneously beating neonatal rat cardiomyocytes (NRCMs); assay: Spontaneous beating rate of neonatal rat cardiomyocytes (anti-arrhythmic cell model); assay type: cell-based; settings: 20 nM or 30 nM; comparison between analogs
Method: The compounds include analogues being part of the invention (Comp-01 to Comp-05), which were synthesized as described in example 1, and additional related compounds (Comp-06 to Comp-13). A 1000-fold stock solutions in ethanol of the test compounds was prepared before use.
In order to measure the biological activities of metabolically robust analogs of CYP-eicosanoids an established cell model was used (Kang, J. X. et al., Proc Natl Acad Sci USA, 1994. 91(21): p. 9886-90). The spontaneously beating neonatal rat cardiomyocytes (NRCMs) are a model system to investigate anti-arrhythmic effects of test-compounds. […]
Isolation and cultivation of NRCMs were performed as described previously (Wallukat, G et al., J Clin Invest. 1999; 103: 945-952; Falck, J R et al., J Med Chem. 2011 Jun. 23; 54(12):4109-18). […] After four hours of incubation cells were adopted for 10 min to 31° C. and beating was recorded using an inverted microscope (Leica DM IRB) equipped with a CCD camera and coupled to an IonOptix (software: IonWizard6, IonOptix). To determine the basal rate, 6 to 8 individual clusters were selected and the number of contractions was counted for 15 sec. After that, the compound to be tested was added to the culture and the beating rate of the same clusters was monitored 5 min later again. […]

[3] = test system: isolated mouse hearts of 12-14 week old male C57BL6/n animals; assay: Ischemia-reperfusion of isolated Langendorff-perfused mouse hearts (Example 11)
Method: Study design: To gain insight into the cardioprotective effects of synthetic 17,18-EEQ-agonists, ischemia-reperfusion studies were performed in isolated mouse hearts of 12-14 week old male C57BL6/n animals. Briefly, mice were anesthetized with i.p. injected pentobarbital/heparin, hearts were rapidly removed and perfused in a Langendorff apparatus. Excised hearts were put in ice-cold Krebs-Henseleit buffer and aortas were cannulated. Modified Krebs-Henseleit buffer for retrograde perfusion contained 118 mM NaCl, 3.5 mM KCl, 1.3 mM MgSO4, 2.5 mM CaCl2, 24.7 mM NaHCO3, 1.4 mM KH2PO4 and 11 mM glucose, was aerated with 95% O2-5% CO2 and kept at constant temperature of 37° C. and pH 7.3. Perfusion pressure was adjusted to 80 mmHg and a latex balloon connected to a pressure transducer was inserted in the left ventricle through the left atrium. Hearts were perfused with buffer for a 15 minutes stabilisation period, followed by 10 minutes perfusion with either the agonistic analog Comp-02 (100 nM) or vehicle (0.9% NaCl in water). Afterwards hearts were subjected to 35 minutes global no-flow ischemia followed by 40 minutes of reperfusion. Compound or vehicle perfusion was kept constant during the reperfusion time. To analyse recovery of contractile function the left ventricular developed pressure (LVdP) at different time points during reperfusion was measured and expressed as percentage of pre-ischemic LVdP. Exclusion criteria for the hearts were: (i) a LVdP below 60 mmHg at the end of the stabilisation phase (baseline measurement), (ii) a heart rate below 260 bpm, (iii) coronary flow below 1.5 or over 4 ml/min and finally (iv) severe sustained arrhythmias during the stabilisation phase. The results are presented in FIG. 1 and expressed as mean±SEM percentage of pre-ischemic LVdP. Data were analysed by two-tailed unpaired Student's t test and considered significant if p<0.05*.

## CNC(=O)C(=O)NCCCC/C=C\CCCCCCCOCC(=O)O [Comp-02, 2-((13-(2-(methylamino)-2-oxoacetamido)tridec-8(Z)-en-1-yl)oxy)acetic acid]
[1]
  inhibition of human sEH: did not show sEH-inhibition
[2]
  negative chronotropic effect on NRCMs, in words: equal potency
[3]; 100 nM, 10 minutes reperfusion
  functional recovery, LVdP as percentage of pre-ischemic LVdP: 18%
[3]; 100 nM, 40 minutes reperfusion
  functional recovery, LVdP as percentage of pre-ischemic LVdP: 59%
[3]; 100 nM, vs control group
  post-ischemic recovery of contractility function, in words: significantly improved post-ischemic recovery of contractility function
[3]; continuous infusion of 100 nM
  obvious negative side effects: did not induce any obvious negative side effects
